Activity calls are given as the source filed them.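 How the source made its calls: active means raises KCNQ1 potassium channel current at one or more doses and a concentration response curve can be fitted; inactive means no activation at any dose, or no fittable curve.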
Biological target: Potassium voltage-gated channel subfamily KQT member 1 (Homo sapiens) (UniProt P51787)
Assay: KCNQ1 potassium current enhancement – automated patch clamp, CHO cells, SAR follow-up (AID 588673)

Potassium voltage-gated channel subfamily KQT member 1 (Homo sapiens), sequence (P51787 whole entry, looked up): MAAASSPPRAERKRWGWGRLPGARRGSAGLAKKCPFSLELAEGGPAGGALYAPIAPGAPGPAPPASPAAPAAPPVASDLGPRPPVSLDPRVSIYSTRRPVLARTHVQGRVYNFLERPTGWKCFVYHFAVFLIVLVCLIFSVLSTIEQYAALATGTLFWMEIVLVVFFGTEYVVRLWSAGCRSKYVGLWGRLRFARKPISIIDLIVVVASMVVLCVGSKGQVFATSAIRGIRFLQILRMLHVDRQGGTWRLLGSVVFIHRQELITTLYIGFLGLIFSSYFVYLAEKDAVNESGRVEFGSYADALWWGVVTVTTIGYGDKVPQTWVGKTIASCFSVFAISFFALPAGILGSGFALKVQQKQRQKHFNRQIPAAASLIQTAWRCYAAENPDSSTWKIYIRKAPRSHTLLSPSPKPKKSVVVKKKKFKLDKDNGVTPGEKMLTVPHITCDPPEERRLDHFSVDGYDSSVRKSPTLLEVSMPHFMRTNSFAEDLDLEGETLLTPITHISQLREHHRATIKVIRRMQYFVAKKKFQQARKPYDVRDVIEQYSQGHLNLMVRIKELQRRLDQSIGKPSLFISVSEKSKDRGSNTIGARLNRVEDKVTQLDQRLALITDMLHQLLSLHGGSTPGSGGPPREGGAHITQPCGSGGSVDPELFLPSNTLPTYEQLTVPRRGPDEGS

current activation, percent increase (at 30 µM (top of the series))	IC50, inhibition of current [µM]	Structure (SMILES)
inactive	–	COc1ccc(-c2csc(NC(=O)[C@@H]3CCCCN3S(=O)(=O)c3ccccc3)n2)cc1
–	1.39	COc1ccc(-c2csc(NC(=O)[C@H]3CCCCN3S(=O)(=O)c3ccccc3)n2)cc1
–	1.66	COc1ccc(-c2csc(NC(=O)C3CCCCN3S(=O)(=O)c3ccccc3)n2)cc1 (stereo not drawn)
